Reference: patent publication US20050152845A1, “Amorphous fluticasone 2-furoate, pharmaceutical compositions thereof and its conversion to the crystalline unsolvated form” (priority 2002, published 2005)

Assays:
glucocorticoid receptor = biological target: T1, glucocorticoid receptor (Homo sapiens, UniProt P04150); assay: In vitro functional glucocorticoid assays, metabolite versus parent; type: cell-based
T1 construct: endogenous in cells
T1 sequence (P04150 1-777): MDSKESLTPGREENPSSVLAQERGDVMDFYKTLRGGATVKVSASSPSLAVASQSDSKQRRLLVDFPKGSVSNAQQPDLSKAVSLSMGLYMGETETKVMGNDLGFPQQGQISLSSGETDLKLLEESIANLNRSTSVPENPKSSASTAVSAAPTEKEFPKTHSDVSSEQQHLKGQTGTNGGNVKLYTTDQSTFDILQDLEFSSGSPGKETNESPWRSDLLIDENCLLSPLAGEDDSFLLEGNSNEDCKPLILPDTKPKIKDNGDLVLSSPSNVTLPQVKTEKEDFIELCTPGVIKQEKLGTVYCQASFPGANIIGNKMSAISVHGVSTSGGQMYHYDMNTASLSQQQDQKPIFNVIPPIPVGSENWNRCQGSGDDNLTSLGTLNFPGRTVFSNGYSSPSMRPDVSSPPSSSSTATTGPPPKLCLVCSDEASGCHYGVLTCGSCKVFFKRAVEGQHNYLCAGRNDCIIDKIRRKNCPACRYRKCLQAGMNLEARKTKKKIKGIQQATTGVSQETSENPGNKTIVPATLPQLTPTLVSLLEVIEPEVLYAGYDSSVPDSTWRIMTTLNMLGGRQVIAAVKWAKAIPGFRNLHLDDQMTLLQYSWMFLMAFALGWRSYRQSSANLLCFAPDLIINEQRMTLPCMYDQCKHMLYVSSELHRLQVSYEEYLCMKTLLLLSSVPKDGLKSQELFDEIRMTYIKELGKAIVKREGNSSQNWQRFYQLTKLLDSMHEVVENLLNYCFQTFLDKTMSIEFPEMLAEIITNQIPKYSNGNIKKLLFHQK
Procedure: Compound (I) undergoes highly efficient hepatic metabolism to yield the 17-β carboxylic acid (X) as the sole major metabolite in rat and human in vitro systems.
The functional assay was based on that described by K. P. Ray et al., Biochem J. (1997), 328, 707-715. A549 cells stably transfected with a reporter gene containing the NF-κB responsive elements from the ELAM gene promoter coupled to sPAP (secreted alkaline phosphatase) were treated with test compounds at appropriate doses for 1 hour at 37° C. The cells were then stimulated with tumour necrosis factor (TNF, 10ng/ml) for 16 hours, at which time the amount of alkaline phosphatase produced is measured by a standard colourimetric assay. Dose response curves were constructed from which EC50 values were estimated.
(§1) In a variant of the above method, to monitor these functions, two reporter plasmids have been generated and introduced separately into A549 human lung epithelial cells by transfection. […] After incubation for 1 h 0.5ng/ml TNFα (R&D Systems) was added and after a further 15 hours at 37° C., the levels of firefly and renilla luciferase were measured using the Packard Firelite kit following the manufacturers' directions. Dose response curves were constructed from which EC50 values were determined.

NFκB = assay: Transrepression reporter assay (firefly luciferase, NFκB promoter, TNFα stimulated) in A549 cells; type: cell-based; details: Homo sapiens, 1 h compound then 0.5ng/ml TNFα 15 hours, read-out: Transrepression (NFκB) ED50
Source text: (§2) The glucocorticoid receptor (GR) can function in at least two distinct mechanisms, by upregulating gene expression through the direct binding of GR to specific sequences in gene promoters, and by downregulating gene expression that is being driven by other transcription factors (such as NFκB or AP-1) through their direct interaction with GR.
The first cell line contains the firefly luciferase reporter gene under the control of a synthetic promoter that specifically responds to activation of the transcription factor NFκB when stimulated with TNFα. The second cell line contains the renilla luciferase reporter gene under the control of a synthetic promotor that comprises 3 copies of the consensus glucocorticoid response element, and which responds to direct stimulation by glucocorticoids. Simultaneous measurement of transactivation and transrepression was conducted by mixing the two cell lines in a 1:1 ratio in 96 well plate (40,000 cells per well) and growing overnight at 37° C. Test compounds were dissolved in DMSO, and added to the cells at a final DMSO concentration of 0.7%. […] Dose response curves were constructed from which EC50 values were determined.

[1] = biological target: T2, glucocorticoid receptor (GR) (Homo sapiens, UniProt P04150); assay: Transactivation reporter assay (renilla luciferase, glucocorticoid response element) in A549 cells; type: cell-based; details: 1 h compound then 0.5ng/ml TNFα 15 hours, read-out: Transactivation (GR) ED50
T2 construct: two reporter plasmids have been generated and introduced separately into A549 human lung epithelial cells by transfection; endogenous in cells; host or cells: A549 human lung epithelial cells stably carrying a renilla luciferase reporter with 3 copies of the consensus GRE
T2 sequence (P04150 1-777): T1 sequence (P04150 1-777)
Source text: as §2
as §1, with “transfection. The first cell line contains the firefly luciferase reporter gene under the control of a synthetic promoter that specifically responds to activation of the transcription factor NFκB when stimulated with TNFα. The second cell line contains the renilla luciferase reporter gene under the control of a synthetic promotor that comprises 3 copies of the consensus glucocorticoid response element, and which responds to direct stimulation by glucocorticoids.” for “transfection.”

thymus weight = assay: Rat model of thymus involution; type: in vivo; details: 3 daily IT doses of 100 μg
[2] = Pharmacokinetics after intra-tracheal dry powder dosing in the pig; type: in vivo; details: 1 mg intra-tracheal, LLOQ 10 pg/mL compound (I), 20pg/mL fluticasone propionate
Procedure: Serial blood samples were taken for up to 8 h following dosing.

lung eosinophilia = assay: Ovalbumin sensitised Brown Norway rat eosinophilia model; type: in vivo; details: single dose of 30 μg, intra-tracheal suspension in saline 30 min prior to ovalbumin challenge
Procedure: Pharmacological activity in vivo was assessed in an ovalbumin sensitised Brown Norway rat eosinophilia model. This model is designed to mimic allergen induced lung eosinophilia, a major component of lung inflammation in asthma.

Structure (SMILES)	fold less active than the parent compound (glucocorticoid receptor) [fold]	EC50 (NFκB) [nM]	EC50 [1] [nM]	reduction of thymus weight (thymus weight) [%]	time after dosing up to which quantifiable in plasma [2]	inhibition of lung eosinophilia (lung eosinophilia) [%]
C[C@@H]1CCC2C3C[C@H](F)C4=CC(=O)C=C[C@]4(C)[C@@]3(F)[C@@H](O)C[C@]2(C)[C@@]1(OC(=O)c1ccco1)C(=O)O (stereo partly drawn) [Metabolite (X)]	> 1000	> 1000	> 250	–	–	–
CCC(=O)O[C@]1(C(=O)SCF)[C@H](C)C[C@H]2[C@@H]3C[C@H](F)C4=CC(=O)C=C[C@]4(C)[C@@]3(F)[C@@H](O)C[C@@]21C [Fluticasone propionate, 6α, 9α-Difluoro-17α-(1-oxopropoxy)-11β-hydroxy-16α-methyl-3-oxo-androsta-1,4-diene-17β-carbothioic acid S-fluoromethyl ester, reference compound]	–	–	–	78	up to 8 hours	41
